Legend:
HER2 INS YVMA = molecular target: T1, HER2 INS YVMA (Homo sapiens, UniProt P04626, INS775YVMA); experiment: Lance Kinase Activity Assay, HER2 INS YVMA (Her2 Exon 20 INSYVMA Lance); assay type: biochemical; settings: biochemical Lance assay
T1 construct: purchased DPF
Procedure, shortened: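 Kinase phosphorylates a ULight-labelled peptide substrate; Eu anti-phospho antibody gives TR-FRET (ex 340 nm, em 665/615 nm). Compounds in 1:3 serial dilution over 8 steps, reaction started with ATP, 1 h at room temperature, stopped with EDTA-containing detection mix for 1 h. IC50 from sigmoidal dose-response curves.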

[1] = molecular target: EGFR Exon 20 INSNPH Ba/F3 (Homo sapiens, UniProt P00533, DUP771-773, cells depend on it); experiment: EGFR Exon 20 INSNPH Ba/F3 CellTiter-Glo; assay type: cell-based; settings: CellTiter-Glo, 72 h, read-out: EGFR Exon 20 INSNPH Ba/F3 CTG IC50
Procedure, shortened: (§1)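 Ba/F3 cells were seeded, left 24 h at 37 °C/5% CO2, then exposed to compound dilutions in DMSO for 72 h. Viability was read as ATP luminescence (CellTiter-Glo) and IC50 fitted from dose–response curves; DMSO and 10 μM staurosporine defined the controls, and plates needed Z′ ≥0.5.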

H1975 = H1975 CellTiter-Glo; assay type: cell-based; settings: Homo sapiens, NCI-H1975; 72 h compound incubation; read-out: H1975 CTG IC50
Procedure, shortened: (§2)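 Cells were seeded, left 24 h at 37° C. and 5% CO2, then exposed to compounds in DMSO at different concentrations for a further 72 h. Viability was read as ATP-dependent luminescence (CellTiter-Glo), and IC50 values were obtained from dose-response fits against DMSO and 10 μM Staurosporine controls.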

A431 = A431 CellTiter-Glo; assay type: cell-based; settings: Homo sapiens, A-431; 72 h compound incubation; read-out: A431 CTG IC50
Procedure, shortened: as §2

EGFR T790ML858R = EGFR T790ML858R (Homo sapiens, UniProt P00533, L858R/T790M); experiment: EGFR T790ML858R Lance assay; assay type: biochemical
Procedure: (§3) Inhibition is indicated as […] [nM] (“−”=not measured). Compounds having an activity designated as “A” provided an IC50≤100 nM; compounds having an activity designated as “B” provided an 100 nM<IC50≤500 nM; compounds having an activity designated as “C” provided an 500 nM<IC50≤1000 nM; compounds having an activity designated as “D” provided an 1000 nM<IC50≤100000 nM; and compounds having an activity designated as “E” provided an IC50>10000 nM.

[2] = Metabolic stability in mouse liver microsomes without cofactor NADPH; assay type: in vitro ADME; settings: 3 μM test compound, mouse liver microsomes, without NADPH, 50 min, 37° C., LC-MS/MS
From the text: There are two major groups of enzyme reactions catalyzed by drug metabolizing enzymes, the so called Phase I and Phase II reactions. The basic processes in phase I reactions are oxidation, reduction and/or hydrolysis mostly catalyzed by the cytochrome P450 (CYP) family of enzymes.
The following procedures describe the determination of the in vitro Phase I metabolic stability of test compounds using liver microsomes by measuring compound depletion over time. Test compound at the concentration of 3 μM was incubated with the liver microsomes from the mouse species and the experiment was performed without NADPH. The depletion of the test compounds was measured over time up to 50 minutes at 37° C. by LC-MS/MS. Different compounds were tested under these conditions for microsomal stability (see Table 5).

EGFR wt = EGFR wt (Homo sapiens, UniProt P00533); experiment: EGFR wt Lance assay; assay type: biochemical
Procedure: as §3

[3] = molecular target: Her2 Exon 20 INSYVMA Ba/F3 (Homo sapiens, UniProt P04626, DUP772-775, cells depend on it); experiment: Her2 Exon 20 INSYVMA Ba/F3 CellTiter-Glo; assay type: cell-based; settings: CellTiter-Glo, 72 h, read-out: Her2 Exon 20 INSYVMA Ba/F3 CTG IC50
Procedure, shortened: as §1

T1 sequence (P04626 with tags, fused parts or gaps INS775YVMA): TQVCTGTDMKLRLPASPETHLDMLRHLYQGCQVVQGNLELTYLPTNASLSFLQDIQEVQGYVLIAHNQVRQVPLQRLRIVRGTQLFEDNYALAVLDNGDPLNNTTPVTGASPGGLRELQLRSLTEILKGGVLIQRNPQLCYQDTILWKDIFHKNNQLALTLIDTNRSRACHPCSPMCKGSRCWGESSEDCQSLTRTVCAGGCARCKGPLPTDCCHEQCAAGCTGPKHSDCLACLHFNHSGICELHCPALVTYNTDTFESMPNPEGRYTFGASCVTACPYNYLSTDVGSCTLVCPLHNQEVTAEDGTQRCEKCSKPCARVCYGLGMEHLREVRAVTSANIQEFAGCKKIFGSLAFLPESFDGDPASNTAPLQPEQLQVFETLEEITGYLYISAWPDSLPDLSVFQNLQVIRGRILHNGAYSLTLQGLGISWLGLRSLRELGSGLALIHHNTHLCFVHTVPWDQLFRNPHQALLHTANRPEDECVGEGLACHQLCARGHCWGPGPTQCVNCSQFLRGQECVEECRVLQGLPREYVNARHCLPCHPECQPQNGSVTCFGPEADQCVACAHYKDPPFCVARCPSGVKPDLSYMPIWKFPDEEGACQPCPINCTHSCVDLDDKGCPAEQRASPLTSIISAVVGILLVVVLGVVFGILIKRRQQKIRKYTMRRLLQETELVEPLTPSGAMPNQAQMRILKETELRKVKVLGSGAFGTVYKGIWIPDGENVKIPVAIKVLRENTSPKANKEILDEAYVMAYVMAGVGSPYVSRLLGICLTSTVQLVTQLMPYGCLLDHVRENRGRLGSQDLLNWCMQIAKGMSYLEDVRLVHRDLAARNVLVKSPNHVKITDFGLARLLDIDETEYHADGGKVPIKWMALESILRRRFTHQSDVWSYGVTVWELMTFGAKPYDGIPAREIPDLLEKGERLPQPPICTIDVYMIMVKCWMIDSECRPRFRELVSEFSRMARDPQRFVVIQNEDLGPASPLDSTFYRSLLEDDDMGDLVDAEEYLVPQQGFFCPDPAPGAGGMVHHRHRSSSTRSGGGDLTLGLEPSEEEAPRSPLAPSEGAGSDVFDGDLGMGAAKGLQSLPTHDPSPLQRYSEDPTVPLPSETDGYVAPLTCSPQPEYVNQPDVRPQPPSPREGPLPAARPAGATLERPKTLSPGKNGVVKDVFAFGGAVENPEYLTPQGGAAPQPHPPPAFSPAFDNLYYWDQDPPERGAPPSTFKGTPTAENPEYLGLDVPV
Sequence of EGFR wt (P00533 25-1210): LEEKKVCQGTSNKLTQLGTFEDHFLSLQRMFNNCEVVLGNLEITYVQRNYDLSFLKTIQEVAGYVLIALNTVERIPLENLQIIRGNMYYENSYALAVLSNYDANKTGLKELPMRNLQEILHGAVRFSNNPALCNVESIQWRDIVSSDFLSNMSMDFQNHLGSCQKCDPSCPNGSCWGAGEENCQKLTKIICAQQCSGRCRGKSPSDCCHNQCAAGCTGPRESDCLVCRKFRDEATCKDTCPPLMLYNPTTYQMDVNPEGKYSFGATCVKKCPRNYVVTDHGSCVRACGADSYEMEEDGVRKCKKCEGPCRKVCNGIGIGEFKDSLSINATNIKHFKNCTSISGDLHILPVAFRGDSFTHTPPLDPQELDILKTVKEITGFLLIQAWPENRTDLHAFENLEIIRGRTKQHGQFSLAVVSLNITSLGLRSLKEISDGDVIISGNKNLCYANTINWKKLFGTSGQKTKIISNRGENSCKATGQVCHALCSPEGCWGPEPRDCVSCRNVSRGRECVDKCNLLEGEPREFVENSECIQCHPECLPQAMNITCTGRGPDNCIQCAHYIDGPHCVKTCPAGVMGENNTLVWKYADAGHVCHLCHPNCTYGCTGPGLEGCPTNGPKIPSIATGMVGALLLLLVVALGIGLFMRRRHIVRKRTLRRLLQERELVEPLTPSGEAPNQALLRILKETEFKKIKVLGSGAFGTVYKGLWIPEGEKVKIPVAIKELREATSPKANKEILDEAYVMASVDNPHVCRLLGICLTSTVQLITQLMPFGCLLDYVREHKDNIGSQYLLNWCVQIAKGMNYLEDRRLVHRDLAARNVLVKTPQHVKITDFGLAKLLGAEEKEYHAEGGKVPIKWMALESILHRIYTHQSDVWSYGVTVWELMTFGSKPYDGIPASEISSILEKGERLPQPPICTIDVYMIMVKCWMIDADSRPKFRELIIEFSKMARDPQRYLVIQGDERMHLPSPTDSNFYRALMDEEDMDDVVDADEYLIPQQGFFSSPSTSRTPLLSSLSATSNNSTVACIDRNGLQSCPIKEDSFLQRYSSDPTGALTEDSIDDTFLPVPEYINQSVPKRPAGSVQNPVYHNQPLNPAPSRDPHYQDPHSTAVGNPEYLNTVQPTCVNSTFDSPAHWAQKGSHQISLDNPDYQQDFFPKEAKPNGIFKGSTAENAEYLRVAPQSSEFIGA
Sequence of Her2 Exon 20 INSYVMA Ba/F3 (P04626 with tags, fused parts or gaps DUP772-775): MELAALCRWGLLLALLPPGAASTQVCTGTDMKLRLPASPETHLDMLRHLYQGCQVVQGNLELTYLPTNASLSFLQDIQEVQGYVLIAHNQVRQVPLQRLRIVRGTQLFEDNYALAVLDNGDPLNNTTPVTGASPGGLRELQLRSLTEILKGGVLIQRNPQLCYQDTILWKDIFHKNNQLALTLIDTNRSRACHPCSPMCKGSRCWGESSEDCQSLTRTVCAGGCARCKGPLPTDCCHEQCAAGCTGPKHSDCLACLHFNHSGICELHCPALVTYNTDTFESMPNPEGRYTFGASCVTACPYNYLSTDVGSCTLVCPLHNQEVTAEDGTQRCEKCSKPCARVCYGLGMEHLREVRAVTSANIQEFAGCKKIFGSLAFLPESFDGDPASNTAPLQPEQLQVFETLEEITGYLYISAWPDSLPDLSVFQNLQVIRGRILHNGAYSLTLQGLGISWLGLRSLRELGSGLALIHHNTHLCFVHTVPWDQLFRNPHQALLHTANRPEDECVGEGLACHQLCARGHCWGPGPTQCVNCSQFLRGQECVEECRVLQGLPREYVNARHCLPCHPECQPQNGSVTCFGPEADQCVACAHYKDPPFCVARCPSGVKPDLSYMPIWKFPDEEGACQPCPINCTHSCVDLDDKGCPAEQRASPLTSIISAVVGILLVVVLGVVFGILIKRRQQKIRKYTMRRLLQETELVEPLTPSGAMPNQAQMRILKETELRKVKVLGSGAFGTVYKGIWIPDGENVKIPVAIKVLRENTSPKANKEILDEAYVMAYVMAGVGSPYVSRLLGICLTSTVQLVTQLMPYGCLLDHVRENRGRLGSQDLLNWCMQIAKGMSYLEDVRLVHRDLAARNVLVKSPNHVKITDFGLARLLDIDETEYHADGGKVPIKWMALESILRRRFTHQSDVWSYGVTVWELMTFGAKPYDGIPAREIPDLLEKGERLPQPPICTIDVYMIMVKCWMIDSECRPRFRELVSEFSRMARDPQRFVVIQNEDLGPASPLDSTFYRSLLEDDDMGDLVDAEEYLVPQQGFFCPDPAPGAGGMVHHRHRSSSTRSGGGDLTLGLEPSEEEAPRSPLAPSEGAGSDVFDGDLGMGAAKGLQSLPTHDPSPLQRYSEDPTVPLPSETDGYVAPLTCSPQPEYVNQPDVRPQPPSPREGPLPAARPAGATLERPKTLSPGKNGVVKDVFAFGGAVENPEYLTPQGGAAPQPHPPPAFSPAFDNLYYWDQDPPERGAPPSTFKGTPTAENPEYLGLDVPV
Sequence of EGFR Exon 20 INSNPH Ba/F3 (P00533 with tags, fused parts or gaps DUP771-773): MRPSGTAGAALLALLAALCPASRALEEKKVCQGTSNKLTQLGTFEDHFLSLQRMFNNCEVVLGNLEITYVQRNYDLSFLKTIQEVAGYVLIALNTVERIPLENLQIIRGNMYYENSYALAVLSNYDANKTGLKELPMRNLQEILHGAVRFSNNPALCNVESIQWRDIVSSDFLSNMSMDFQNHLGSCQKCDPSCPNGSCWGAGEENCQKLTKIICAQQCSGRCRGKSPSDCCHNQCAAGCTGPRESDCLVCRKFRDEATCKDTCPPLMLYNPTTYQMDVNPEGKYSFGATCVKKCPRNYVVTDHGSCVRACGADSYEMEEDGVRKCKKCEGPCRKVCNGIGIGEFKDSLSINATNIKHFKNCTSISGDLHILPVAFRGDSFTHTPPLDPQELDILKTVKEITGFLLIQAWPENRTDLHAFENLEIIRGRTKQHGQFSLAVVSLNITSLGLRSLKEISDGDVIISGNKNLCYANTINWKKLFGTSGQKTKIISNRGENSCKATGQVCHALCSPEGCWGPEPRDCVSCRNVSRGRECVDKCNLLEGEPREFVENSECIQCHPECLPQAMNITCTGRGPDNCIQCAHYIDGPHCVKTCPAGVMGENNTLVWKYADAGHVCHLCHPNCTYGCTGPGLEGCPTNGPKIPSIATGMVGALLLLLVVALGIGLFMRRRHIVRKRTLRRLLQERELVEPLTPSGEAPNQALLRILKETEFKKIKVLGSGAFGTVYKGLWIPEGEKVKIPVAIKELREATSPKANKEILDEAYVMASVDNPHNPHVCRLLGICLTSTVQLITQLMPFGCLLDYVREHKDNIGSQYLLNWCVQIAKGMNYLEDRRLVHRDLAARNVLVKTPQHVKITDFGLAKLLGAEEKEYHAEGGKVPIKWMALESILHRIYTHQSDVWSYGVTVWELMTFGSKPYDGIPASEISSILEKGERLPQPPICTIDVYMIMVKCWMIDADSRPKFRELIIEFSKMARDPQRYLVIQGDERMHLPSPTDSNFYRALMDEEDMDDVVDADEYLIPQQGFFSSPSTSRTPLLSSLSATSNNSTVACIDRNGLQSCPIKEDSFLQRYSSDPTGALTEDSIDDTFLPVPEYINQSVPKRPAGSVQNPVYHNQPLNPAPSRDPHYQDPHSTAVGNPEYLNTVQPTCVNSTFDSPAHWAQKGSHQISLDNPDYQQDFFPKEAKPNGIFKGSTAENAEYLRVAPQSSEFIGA

| Compound | IC50 (HER2 INS YVMA) | GI50 [1] | IC50 (H1975) | IC50 (A431) | IC50 (EGFR T790ML858R) | Stability in presence of mouse liver microsomes without cofactor NADPH [% remaining after 50 min] [2] | IC50 (EGFR wt) | GI50 [3] |
| --- | --- | --- | --- | --- | --- | --- | --- | --- |
| C=CC(=O)Nc1cc(-c2c(-c3ccc(N4CCN(C)CC4)cc3)[nH]c3ncc(C(=O)NC(C)C)cc23)ccc1C [Example 119, 3-(3-acrylamido-4-methylphenyl)-N-isopropyl-2-(4-(4-methylpiperazin-1-yl)phenyl)-1H-pyrrolo[2,3-b]pyridine-5-carboxamide] | ≤ 100 nM | 100 to 500 nM | 500 to 1000 nM | 500 to 1000 nM | ≤ 100 nM | >99 % remaining after 50 min | ≤ 100 nM | 100 to 500 nM |
| C=CC(=O)Nc1cc(-c2c(-c3ccc(N4CCN(C)CC4)c(F)c3)[nH]c3ncc(C(=O)OC(C)C)cc23)ccc1C [Example 164, isopropyl 3-(3-acrylamido-4-methylphenyl)-2-(3-fluoro-4-(4-methylpiperazin-1-yl)phenyl)-1H-pyrrolo[2,3-b]pyridine-5-carboxylate] | ≤ 100 nM | 100 to 500 nM | 100 to 500 nM | 1000 to 100000 nM | ≤ 100 nM | >99 % remaining after 50 min | ≤ 100 nM | 100 to 500 nM |
| C=CC(=O)Nc1cc(-c2c(-c3ccc(N4CCN(C)CC4)cc3)[nH]c3ncc(C(=O)OCC)cc23)ccc1C [Example 135, ethyl 3-(3-acrylamido-4-methylphenyl)-2-(4-(4-methylpiperazin-1-yl)phenyl)-1H-pyrrolo[2,3-b]pyridine-5-carboxylate] | ≤ 100 nM | 100 to 500 nM | ≤ 100 nM | 1000 to 100000 nM | ≤ 100 nM | 95 % remaining after 50 min | ≤ 100 nM | 100 to 500 nM |
| C=CC(=O)N1CCc2ccc(-c3c(-c4ccc(N5CCN(C)CC5)cc4)[nH]c4nccc(OCC)c34)cc21 [Example 104, 1-(6-(4-ethoxy-2-(4-(4-methylpiperazin-1-yl)phenyl)-1H-pyrrolo[2,3-b]pyridin-3-yl)indolin-1-yl)prop-2-en-1-one 2,2,2-trifluoroacetate] | ≤ 100 nM | 100 to 500 nM | ≤ 100 nM | 500 to 1000 nM | ≤ 100 nM | 89 % remaining after 50 min | ≤ 100 nM | 100 to 500 nM |
| Cc1ccc(-c2c(-c3ccc(N4CCN(C)CC4)cc3)[nH]c3nccc(Cl)c23)cc1NC(=O)CCl [Example 146, 2-chloro-N-(5-(4-chloro-2-(4-(4-methylpiperazin-1-yl)phenyl)-1H-pyrrolo[2,3-b]pyridin-3-yl)-2-methylphenyl)acetamide 2,2,2-trifluoroacetate] | ≤ 100 nM | 100 to 500 nM | ≤ 100 nM | 100 to 500 nM | ≤ 100 nM | 9 % remaining after 50 min | ≤ 100 nM | 100 to 500 nM |
| C=CC(=O)Nc1cc(-c2c(-c3ccc(N4CCOCC4)nc3)[nH]c3nccc(Cl)c23)ccc1C [Example 30, N-(5-(4-chloro-2-(6-morpholinopyridin-3-yl)-1H-pyrrolo[2,3-b]pyridin-3-yl)-2-methylphenyl)acrylamide] | 100 to 500 nM | 500 to 1000 nM | 100 to 500 nM | – | ≤ 100 nM | >99 % remaining after 50 min | ≤ 100 nM | 1000 to 10000 nM |
| C=CC(=O)Nc1cc(-c2c(-c3ccc(C4CCN(C)CC4)cc3)[nH]c3nccc(OCC)c23)ccc1C [Example 147, 2,2,2-trifluoroacetate] | ≤ 100 nM | 500 to 1000 nM | ≤ 100 nM | – | ≤ 100 nM | 94 % remaining after 50 min | ≤ 100 nM | 500 to 1000 nM |
| C=CC(=O)Nc1cc(-c2c(-c3ccc(N4CCN(C(C)=O)CC4)nc3)[nH]c3nccc(Cl)c23)ccc1C [Example 31, N-(5-(2-(6-(4-acetylpiperazin-1-yl)pyridin-3-yl)-4-chloro-1H-pyrrolo[2,3-b]pyridin-3-yl)-2-methylphenyl)acrylamide] | 100 to 500 nM | 1000 to 10000 nM | 100 to 500 nM | – | ≤ 100 nM | >99 % remaining after 50 min | 500 to 1000 nM | 1000 to 10000 nM |
| C=CC(=O)Nc1cc(-c2c(-c3ccc(NS(C)(=O)=O)cc3)[nH]c3nccc(Cl)c23)ccc1C [Example 12, N-(5-(4-chloro-2-(4-(methylsulfonamido)phenyl)-1H-pyrrolo[2,3-b]pyridin-3-yl)-2-methylphenyl)acrylamide] | 100 to 500 nM | 100 to 500 nM | ≤ 100 nM | – | ≤ 100 nM | >99 % remaining after 50 min | ≤ 100 nM | 100 to 500 nM |
| C=CC(=O)Nc1cc(-c2c(-c3ccc(C4CCNCC4)cc3)[nH]c3nccc(Cl)c23)ccc1C [Example 29, N-(5-(4-chloro-2-(4-(piperidin-4-yl)phenyl)-1H-pyrrolo[2,3-b]pyridin-3-yl)-2-methylphenyl)acrylamide] | ≤ 100 nM | 500 to 1000 nM | ≤ 100 nM | – | ≤ 100 nM | >99 % remaining after 50 min | ≤ 100 nM | 500 to 1000 nM |
| C=CC(=O)Nc1cc(-c2c(-c3cccc(N4CCOCC4)c3)[nH]c3nccc(Cl)c23)ccc1C [Example 6, N-(5-(4-chloro-2-(3-morpholinophenyl)-1H-pyrrolo[2,3-b]pyridin-3-yl)-2-methylphenyl)acrylamide] | 500 to 1000 nM | 500 to 1000 nM | 100 to 500 nM | – | ≤ 100 nM | >99 % remaining after 50 min | ≤ 100 nM | 500 to 1000 nM |
| C=CC(=O)Nc1cc(-c2c(-c3cccc(OCCCN(C)C)c3)[nH]c3nccc(Cl)c23)ccc1C [Example 20, N-(5-(4-chloro-2-(3-(3-(dimethylamino)propoxy)phenyl)-1H-pyrrolo[2,3-b]pyridin-3-yl)-2-methylphenyl)acrylamide] | ≤ 100 nM | 500 to 1000 nM | ≤ 100 nM | – | ≤ 100 nM | >99 % remaining after 50 min | ≤ 100 nM | 500 to 1000 nM |
| C=CC(=O)Nc1cc(-c2c(-c3ccnc(N4CCOCC4)c3)[nH]c3nccc(Cl)c23)ccc1C [Example 32, N-(5-(4-chloro-2-(2-morpholinopyridin-4-yl)-1H-pyrrolo[2,3-b]pyridin-3-yl)-2-methylphenyl)acrylamide] | 100 to 500 nM | 500 to 1000 nM | ≤ 100 nM | – | ≤ 100 nM | >99 % remaining after 50 min | ≤ 100 nM | 500 to 1000 nM |
| C=CC(=O)Nc1cc(-c2c(-c3cccc(CN4CCOCC4)c3)[nH]c3nccc(Cl)c23)ccc1C [Example 7, N-(5-(4-chloro-2-(3-(morpholinomethyl)phenyl)-1H-pyrrolo[2,3-b]pyridin-3-yl)-2-methylphenyl)acrylamide] | 500 to 1000 nM | 1000 to 10000 nM | 100 to 500 nM | – | ≤ 100 nM | >99 % remaining after 50 min | 100 to 500 nM | 500 to 1000 nM |

— patent US20220370440A1 (Lead Discovery Center GmbH, priority 2018, published 2022)
